{"source": "patent US9707267B2", "about": "“Beta-turn peptidomimetic cyclic compounds for treating dry eye” (Mimetogen Pharmaceuticals, Inc., priority 2008, dated 2017)", "format_in_all_cases": "in vivo, rat", "key": {"[1]": {"test_system": "scopolamine induced dry eye model", "test": "Scopolamine induced dry eye model, corneal fluorescein staining (Example 3)", "settings": "single topical 5 μl of 1% (10 mg/mL) on day eight; read day fourteen; score 0 to 4", "experimental": "(§1) Dry eye was induced using scopolamine (Sigma-Aldrich, St. Louis, Mo.), which was continuously and systemically delivered to the animals via an osmotic pump (2ML4 Alzet®; CedarLane, Burlington, Ontario) filled with scopolamine and implanted subcutaneously in the mid dorsal area between the scapulae. The wound was closed with 2-3 wound clips. After the surgery and again the next day, the animals were subcutaneously injected with Carprofen (0.5 mg/100 g) a non-steroidal anti-inflammatory drug and potent, long-acting analgesic in rodents. Animals were anaesthetized before the surgical pump implantation and before all clinical endpoint testing in an Isofluorane 99.9% USP (Abraxis Bioscience, Richmond Hill, Ontario) chamber. Scopolamine was delivered at 12.5 mg/day and, for technical reasons, the data was evaluated at day 14. […]\nThe clinical signs of corneal dryness were evaluated by fluorescein impregnation of the cornea. […] For each animal, the punctate fluorescent-positive area of the ocular surface was recorded in a blinded fashion. […]"}, "naïve rats": {"test_system": "naïve rats", "test": "Tear mucin production in naïve rats following topical instillation, ELLA (Example 4)", "experimental": "Dose-ranging studies were conducted on the topical instillations of compound D3 in stimulating mucin production in naïve rats. Thirty male sprague dawley rats were divided into five groups of six rats per group and were treated bilaterally once every hour for six consecutive hours with either saline, 0.4% of compound D3, 1.0% of compound D3, 2.5% of compound D3 and 0.00053% of NGF. Once anesthetized, each animal received a 5 μL topical instillation of test article into the lower conjunctival sac of both eyes using a calibrated micropipette.\nTear fluid washings from both eyes were pooled and were collected prior to treatment and following six hourly instillations of saline, compound D3 and NGF. All tear fluid washings were evaluated for mucin concentration by an enzyme-linked lectin assay (ELLA).\nThe mean and standard deviation (SD) were used to characterize the data. The differences in mucin concentration was calculated from treated minus baseline from groups of rats. Continuous mucin changes between two groups from baseline were evaluated using the paired t test. The mucin changes between more than two treatment groups were analyzed using an analysis of variance. The median mucin changes between treatment groups were compared against a theoretical median of zero using the […]. A two-sided test with P<0.05 was considered to be statistically significant. Statistical analysis were performed using GraphPad Prism 4.0C (GraphPad Software Inc., La Jolla, Calif.)."}, "[2]": {"test_system": "scopolamine induced dry eye model", "test": "Scopolamine induced dry eye model, tear fluorescein clearance (Example 3)", "settings": "single topical instillation of 1% on day eight; measured day thirteen", "experimental": "as §1, with “chamber.” for “chamber. Scopolamine was delivered at 12.5 mg/day and, for technical reasons, the data was evaluated at day 14.”\nTear fluorescein clearance was evaluated as described for humans (Afonso, A A. et al., “Correlation of Tear Fluorescein Clearance and Schirmer Test Scores with Ocular Irritation Symptoms,” Ophthalmology 106:803-810 (1999), the entire content of which is incorporated herein by reference) and modified for rats (Chen, W. et al., “Keratoconjunctivitis Sicca Modifies Epithelial Stem Cell Proliferation Kinetics in Conjunctiva,” Cornea 26:1101-1106 (2007), the entire content of which is incorporated herein by reference). […] The length of cotton wetting in mm determined the volume of the collected tear fluid. […]"}, "[3]": {"settings": "2.5%, 5 μL bilaterally once every hour for six hours"}}, "data": [{"smiles": "NCCCC[C@@H]1NC(=O)[C@H](CCC(=O)O)NC(=O)c2cc([N+](=O)[O-])ccc2OCCC(C(=O)NCC(=O)O)NC1=O", "note": "(stereo partly drawn) [Compound D3]", "values": [{"measurement": "corneal fluorescein staining, mean score", "setting": "[1]", "value": "1.1±0.1", "unit": "score"}, {"measurement": "mean changes in mucin concentration (in words)", "setting": "naïve rats; 0.4%, 1.0%, 2.5%, six hourly instillations", "value": "dose-dependent"}, {"measurement": "tear mucin concentration at baseline", "setting": "naïve rats; 2.5% group, prior to treatment", "value": "3.0 ± 1.9", "unit": "ng/µL"}, {"measurement": "change in mucin concentration from baseline", "setting": "naïve rats; [3]", "value": "4.0 ± 3.5", "unit": "ng/µL"}, {"measurement": "tear mucin concentration after treatment", "setting": "naïve rats; [3]", "value": "7.0 ± 4.5", "unit": "ng/µL"}, {"measurement": "aqueous tear turnover, fluorescein clearance (in words)", "setting": "[2]", "value": "no effect on aqueous tear turnover"}]}]}
